Test results from the supplement of paper PMC11208160.

Assay: recombinant UMI read abundance after kanamycin selection (control-corrected) (log10(CPM+1)); higher = more efficient recombination; extreme values may be limits of the assay; sequences stand for … in AGTGCAGAGAAAATCGGCCAGTTTTCTCTGCCTGCAGTCCGCATGCCGTGGGACCCCTTGGGTTCTAACCTGTTGCCTAGATTTATGCAGCGGACTGCCTTTCTCCCAAAGTGATAAACCGG…AGGTTGGTTTCACT; site = the 11-nt donor
In short: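 Values, expressed as log10(CPM+1), derive from recombinant UMI counts converted to CPM, averaged across replicates and scaled by control-derived factors. Plating was with IPTG (0.07 mM) plus kanamycin or unselected, two replicates each. The screen pooled donor and donor-binding-loop pairs for the IS621 bridge recombinase in Escherichia coli.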
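Further: IS621 bridge recombinase in Escherichia coli cells against a fixed T5 target plasmid.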

Row | Sequence | recombinant UMI read abundance (log10)
1 | TAAGCAGCATGGACCGGTTTTCCCGGTAATCCGTATTTGCT (site GAAGCAGCTAG) | 0.00441
2 | TAAGCAGCATGGACCGGTTTTCCCGGTAATCCGTATTTGCT (site TAAGCAGCTAG) | 2.32
3 | TAAGGTCCATGGACCGGTTTTCCCGGTAATCCGTATTTGTA (site TAAAGTCCTTA) | 0.294
4 | TAAGGTCCATGGACCGGTTTTCCCGGTAATCCGTATTTGTA (site TAACGTCCTTA) | 0.0087
5 | TAAGGTCCATGGACCGGTTTTCCCGGTAATCCGTATTTGTA (site TAAGGTCCTTA) | 2.08
6 | TAAGGTCCATGGACCGGTTTTCCCGGTAATCCGTATTTGTA (site TAATGTCCTTA) | 0.00238
7 | TAAGGTGCATGGACCGGTTTTCCCGGTAATCCGTATTTGTA (site TAAGGTGCTTA) | 2.58
8 | TAAGTCACATGGACCGGTTTTCCCGGTAATCCGTATTTGGG (site AAAGTCACTCC) | 0.0244
9 | TAAGTCACATGGACCGGTTTTCCCGGTAATCCGTATTTGGG (site CAAGTCACTCC) | 0.0119
10 | TAAGTCACATGGACCGGTTTTCCCGGTAATCCGTATTTGGG (site GAAGTCACTCC) | 0.00751
11 | TAAGTCACATGGACCGGTTTTCCCGGTAATCCGTATTTGGG (site TAAGTCACTCC) | 0.00997
12 | TAAGTGCCATGGACCGGTTTTCCCGGTAATCCGTATTTGAC (site TAAGTGCCTGT) | 0.999
13 | TAATATCCATGGACCGGTTTTCCCGGTAATCCGTATTTGTC (site TAATATCCTGA) | 0.252
14 | TAATGAGCATGGACCGGTTTTCCCGGTAATCCGTATTTGGC (site TAATGAGCTAC) | 0.253
15 | TAATGAGCATGGACCGGTTTTCCCGGTAATCCGTATTTGGC (site TAATGAGCTCC) | 0.0259
16 | TAATGAGCATGGACCGGTTTTCCCGGTAATCCGTATTTGGC (site TAATGAGCTGC) | 2.42
17 | TAATGAGCATGGACCGGTTTTCCCGGTAATCCGTATTTGGC (site TAATGAGCTTC) | 0.585
18 | TAATGGCCATGGACCGGTTTTCCCGGTAATCCGTATTTGAT (site TAATGGCCTAT) | 0.00507
19 | TACAAACCATGGACCGGTTTTCCCGGTAATCCGTATTTGGT (site AACAAACCTAC) | 0
20 | TACAAACCATGGACCGGTTTTCCCGGTAATCCGTATTTGGT (site CACAAACCTAC) | 0.0034
21 | TACAAACCATGGACCGGTTTTCCCGGTAATCCGTATTTGGT (site GACAAACCTAC) | 0
22 | TACAAACCATGGACCGGTTTTCCCGGTAATCCGTATTTGGT (site TACAAACCTAC) | 0.00495
23 | TACAATTCATGGACCGGTTTTCCCGGTAATCCGTATTTGCC (site TACAATTCTGG) | 0.00632
24 | TACAATTCATGGACCGGTTTTCCCGGTAATCCGTATTTGCC (site TCCAATTCTGG) | 0
25 | TACAATTCATGGACCGGTTTTCCCGGTAATCCGTATTTGCC (site TGCAATTCTGG) | 0.434

Row | Sequence | recombinant UMI read abundance (log10)
26 | TACAATTCATGGACCGGTTTTCCCGGTAATCCGTATTTGCC (site TTCAATTCTGG) | 0
27 | TACAGCGCATGGACCGGTTTTCCCGGTAATCCGTATTTGGC (site TACAGCGCTGC) | 2.37
28 | TACAGTACATGGACCGGTTTTCCCGGTAATCCGTATTTGGT (site TACAGTACTAC) | 0.439
29 | TACAGTCCATGGACCGGTTTTCCCGGTAATCCGTATTTGCG (site TACAGTCCTCG) | 0.004
30 | TACATAGCATGGACCGGTTTTCCCGGTAATCCGTATTTGGG (site TACATAGCTCC) | 0.013
31 | TACATGGCATGGACCGGTTTTCCCGGTAATCCGTATTTGCT (site TACATGGCTAG) | 1.32
32 | TACCACACATGGACCGGTTTTCCCGGTAATCCGTATTTGTC (site TACCACACTGA) | 2.09
33 | TACCTAGCATGGACCGGTTTTCCCGGTAATCCGTATTTGAA (site TAACTAGCTTT) | 0
34 | TACCTAGCATGGACCGGTTTTCCCGGTAATCCGTATTTGAA (site TACCTAGCTTT) | 0.00543
35 | TACCTAGCATGGACCGGTTTTCCCGGTAATCCGTATTTGAA (site TAGCTAGCTTT) | 0
36 | TACCTAGCATGGACCGGTTTTCCCGGTAATCCGTATTTGAA (site TATCTAGCTTT) | 0.0166
37 | TACCTGACATGGACCGGTTTTCCCGGTAATCCGTATTTGTG (site TACCTGACTCA) | 0.0209
38 | TACGACGCATGGACCGGTTTTCCCGGTAATCCGTATTTGGG (site TACGACGCTCC) | 0.012
39 | TACGGAACATGGACCGGTTTTCCCGGTAATCCGTATTTGCT (site TACGGAACTAG) | 0.249
40 | TACGGACCATGGACCGGTTTTCCCGGTAATCCGTATTTGTC (site TACGGACCTGA) | 0
41 | TACGGCCCATGGACCGGTTTTCCCGGTAATCCGTATTTGCG (site TACGGCCCTCG) | 0.024
42 | TACGTCACATGGACCGGTTTTCCCGGTAATCCGTATTTGGG (site TACGTCACTCC) | 0.0239
43 | TACGTGACATGGACCGGTTTTCCCGGTAATCCGTATTTGCA (site TACGTGACTTG) | 2.29
44 | TACTAGACATGGACCGGTTTTCCCGGTAATCCGTATTTGCT (site TACTAGACTAG) | 1.84
45 | TACTAGACATGGACCGGTTTTCCCGGTAATCCGTATTTGCT (site TACTCGACTAG) | 0.00336
46 | TACTAGACATGGACCGGTTTTCCCGGTAATCCGTATTTGCT (site TACTGGACTAG) | 0
47 | TACTAGACATGGACCGGTTTTCCCGGTAATCCGTATTTGCT (site TACTTGACTAG) | 0
48 | TACTAGTCATGGACCGGTTTTCCCGGTAATCCGTATTTGGA (site TACTAGTCTTC) | 1.59
49 | TACTCCTCATGGACCGGTTTTCCCGGTAATCCGTATTTGCC (site AACTCCTCTGG) | 0.934
50 | TACTCCTCATGGACCGGTTTTCCCGGTAATCCGTATTTGCC (site CACTCCTCTGG) | 1.86

Row | Sequence | recombinant UMI read abundance (log10)
51 | TACTCCTCATGGACCGGTTTTCCCGGTAATCCGTATTTGCC (site GACTCCTCTGG) | 0.715
52 | TACTCCTCATGGACCGGTTTTCCCGGTAATCCGTATTTGCC (site TACTCCTCTGG) | 2.63
53 | TACTCGACATGGACCGGTTTTCCCGGTAATCCGTATTTGCT (site TACTAGACTAG) | 0.956
54 | TACTCGACATGGACCGGTTTTCCCGGTAATCCGTATTTGCT (site TACTCGACTAG) | 1.49
55 | TACTCGACATGGACCGGTTTTCCCGGTAATCCGTATTTGCT (site TACTGGACTAG) | 0.00865
56 | TACTCGACATGGACCGGTTTTCCCGGTAATCCGTATTTGCT (site TACTTGACTAG) | 1.01
57 | TACTCGACATGGACCGGTTTTCCCGGTAATCCGTATTTGTC (site TACTCGACTGA) | 0.0119
58 | TACTGCGCATGGACCGGTTTTCCCGGTAATCCGTATTTGAC (site TACTGCGCTGT) | 1.9
59 | TACTGGTCATGGACCGGTTTTCCCGGTAATCCGTATTTGAC (site TACTGGTCTGT) | 1.07
60 | TACTTCGCATGGACCGGTTTTCCCGGTAATCCGTATTTGAT (site TACTTCGCTAT) | 0.583
61 | TACTTCTCATGGACCGGTTTTCCCGGTAATCCGTATTTGTT (site TACTTCTCTAA) | 1.35
62 | TACTTGACATGGACCGGTTTTCCCGGTAATCCGTATTTGAT (site TACTTGACTAA) | 0.0207
63 | TACTTGACATGGACCGGTTTTCCCGGTAATCCGTATTTGAT (site TACTTGACTAC) | 0.015
64 | TACTTGACATGGACCGGTTTTCCCGGTAATCCGTATTTGAT (site TACTTGACTAG) | 0.00211
65 | TACTTGACATGGACCGGTTTTCCCGGTAATCCGTATTTGAT (site TACTTGACTAT) | 0.476
66 | TACTTGACATGGACCGGTTTTCCCGGTAATCCGTATTTGCG (site TACTTGACTAG) | 0.00183
67 | TACTTGACATGGACCGGTTTTCCCGGTAATCCGTATTTGCG (site TACTTGACTCG) | 0.524
68 | TACTTGACATGGACCGGTTTTCCCGGTAATCCGTATTTGCG (site TACTTGACTGG) | 0
69 | TACTTGACATGGACCGGTTTTCCCGGTAATCCGTATTTGCG (site TACTTGACTTG) | 0
70 | TACTTGACATGGACCGGTTTTCCCGGTAATCCGTATTTGTT (site TACTTGACTAA) | 0.00709
71 | TACTTGACATGGACCGGTTTTCCCGGTAATCCGTATTTGTT (site TACTTGACTAC) | 0.0106
72 | TACTTGACATGGACCGGTTTTCCCGGTAATCCGTATTTGTT (site TACTTGACTAG) | 0.00636
73 | TACTTGACATGGACCGGTTTTCCCGGTAATCCGTATTTGTT (site TACTTGACTAT) | 0.00466
74 | TACTTGGCATGGACCGGTTTTCCCGGTAATCCGTATTTGCT (site TACTTGACTAG) | 0.00409
75 | TACTTGGCATGGACCGGTTTTCCCGGTAATCCGTATTTGCT (site TACTTGCCTAG) | 0.00558
